Results: ChEMBL document CHEMBL1201862, “PubChem BioAssay data set” (2004)
The source made the active and inactive calls.

Legend:
[1] = CEM21 lymphoblast cell cytotoxicity, dose response, cytotoxicity control for viral fusion inhibitor project, CellTiter-Glo luminescence, cherry-picked (AID 652042); assay type: functional, cell-based;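 also: potency for signal decrease meaning cytotoxicity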
[2] = ZM109 Env clade C HIV-1 fusion inhibitors, dose response, HeLa effector, CEM target cells, luciferase, cherry-pick (AID 652058); assay type: functional, cell-based
[3] = molecular target: Beta-galactosidase (Escherichia coli, UniProt Q8VNN2); assay: Dose response counterscreen for EBI2 assay utilizing the enzyme, b-galactosidase.; assay type: functional
[4] = cells
[5] = molecular target: Major prion protein (Homo sapiens, UniProt P04156); assay type: functional, cell-based
[6] = molecular target: Peroxisome proliferator-activated receptor gamma/Nuclear receptor coactivator 2 (Homo sapiens, UniProt P37231); assay: (§1) TR-FRET dose response biochemical High Throughput Screening assay for agonists of the steroid receptor coactivator 2 (SRC-2) recruitment by the peroxisome proliferator-activated receptor gamma (PPAR gamma): non-selective agonists. [Related pubchem assays: 1297, 1032 ]; assay type: functional
[7] = molecular target: Peroxisome proliferator-activated receptor gamma/Nuclear receptor coactivator 3 (Homo sapiens, UniProt P37231); assay: as §1, with “3 (SRC-3)” for “2 (SRC-2)”, “1301 (Confirmation screen.), 1048 (Primary screen.)]” for “1297, 1032 ]”; assay type: functional
[8] = molecular target: Peroxisome proliferator-activated receptor gamma/Nuclear receptor coactivator 1 (Homo sapiens, UniProt P37231); assay: as §1, with “1 (SRC-1)” for “2 (SRC-2)”, “assays (depositor defined):AID1300, AID1808, AID504735, AID631]” for “assays: 1297, 1032 ]”; assay type: protein assay
[9] = molecular target: Kallikrein-7 (Homo sapiens, UniProt P49862); assay: Fluorescence Intensity-based biochemical primary high throughput dose response assay to identify activators of kallikrein-7 (K7) zymogen.
[10] = Luminescence-based cell-based high throughput dose response assay to identify activators of the DAF-12 from the parasite S. stercoralis (ssDAF-12).; assay type: functional
[11] = cells; assay type: functional, cell-based
[12] = cells; assay type: functional, cell-based; remark: listed apart in the source
[13] = molecular target: T1, Trace amine-associated receptor 1 (Homo sapiens, UniProt Q96RJ0); assay: Fluorescence-based cell-based high throughput dose response assay to identify agonists of the human trace amine associated receptor 1 (TAAR1).; assay type: functional
T1 sequence (Q96RJ0 whole entry): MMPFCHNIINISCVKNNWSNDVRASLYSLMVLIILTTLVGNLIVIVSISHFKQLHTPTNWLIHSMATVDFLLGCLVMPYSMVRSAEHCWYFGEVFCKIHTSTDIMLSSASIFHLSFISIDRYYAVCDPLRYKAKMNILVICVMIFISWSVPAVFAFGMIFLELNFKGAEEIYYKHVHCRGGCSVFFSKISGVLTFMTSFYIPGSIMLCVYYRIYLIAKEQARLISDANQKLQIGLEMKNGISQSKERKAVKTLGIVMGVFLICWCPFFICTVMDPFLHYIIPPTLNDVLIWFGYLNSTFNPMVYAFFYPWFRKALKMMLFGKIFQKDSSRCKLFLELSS

[14] = molecular target: T1, Trace amine-associated receptor 1; assay: Counterscreen for agonists of the human trace amine associated receptor 1 (hTAAR1): Fluorescence-based cell-based high throughput dose response assay to identify hTAAR1 agonist that also desensitize TAAR1 receptor response.; assay type: functional
[15] = system: HeLa; assay: HeLa cell cytotoxicity, dose response, cytotoxicity control, ATP luminescence, cherry-pick samples (AID 687004); assay type: functional, cell-based; details: Homo sapiens
[16] = molecular target: 5-hydroxytryptamine receptor 2A (Mus musculus, UniProt P35363); assay type: functional, cell-based;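 also: CHO-K1 cells with tagged receptor and beta-arrestin; agonist potency measured as compound-induced activation of the receptor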
[17] = molecular target: Mu-type opioid receptor (Homo sapiens, UniProt P35372); assay type: functional, cell-based;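 also: U2OS cells with beta-arrestin recruitment to OPRM1 by beta-gal complementation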
[18] = molecular target: Matrix metalloproteinase-14 (Homo sapiens, UniProt P50281); assay: Dose Response confirmation of uHTS hits for a small molecule inhibitors of MT1-MMP activation in a fluorescence assay set 1.; assay type: functional

For CC1(C)N=C(N)N=C(N)N1CCCCc1ccccc1, the AC50 [1] was 1.63 µM (active) and the AC50 [2] was 1.34 µM (active).

For CCOC(=O)N1CCN(C(=O)COc2ccc(Br)cc2)CC1, the IC50 [3] was > 80 µM (inactive).

With Cc1ccc(Sc2c(O)c3ccccc3n(C)c2=O)cc1 the IC50 [4] was > 138 µM (inactive), the IC50 [5] was 7.12 µM (active) and the EC50 [6] was > 79.4 µM (not active). The EC50 [7] was > 79.4 µM (not active) and the EC50 [8] was > 79.4 µM (inactive).

With N#Cc1ccc2c(c1)nc1ccccn12 the EC50 [9] was > 69.6 µM (inactive).

For COc1ccc(/C=C(/CC(=O)NCc2ccc(Cl)cc2)c2nc3ccccc3s2)cc1, the EC50 [9] was 2.56 µM (active).

In the case of COc1ccc(-c2cn3ccccc3n2)cc1OC, the IC50 [10] is reported as > 67.5 µM (inactive).

With Cc1ccc(/C=C/C(=O)N2CCCN(C(=O)/C=C/c3ccc(C)cc3)CC2)cc1 the IC50 [3] was > 80 µM (inactive).

With Cc1cc(C)c(C#N)c(SCC(=O)c2cc(C)n(CCc3ccccc3)c2C)n1 the EC50 [11] was > 29.9 µM (inactive), the IC50 [12] was > 29.9 µM (inactive) and the EC50 [13] was 1.15 µM (active). The IC50 [14] was 4.68 µM (active).

For COc1ccc(N(CC(=O)NCCSCc2ccc(C)cc2)S(=O)(=O)c2ccccc2)cc1, the AC50 [15] was > 52 µM (inactive).

For CC1CC(C)CN(CCOc2cccc(Cl)c2Cl)C1 (stereo not given), the EC50 [16] was 0.281 µM (active) and the EC50 [17] was 92.5 µM (inactive).

With CN1C2=CC=CC=CC2=[N+](C)C12C=CC(=[N+]([O-])[O-])C=C2[N+](=O)[O-] (stereo not given) the IC50 [18] was 54.2 µM (inactive).
